molecular target: T1, Stabilin-2 receptor (190-HARE) (Homo sapiens, UniProt Q8WWQ8); assay: Stabilin-2 mediated endocytosis of 35S-labeled LMWHs in Flp-In-293 cells; assay type: cell-based; details: Flp-In-293 cells expressing 190-HARE, 3 h at 37° C. (FIG. 5)
T1 construct: The Stabilin-2 cell line expressing the 190-HARE; expressed in transfected cells
T1 sequence (Q8WWQ8 1136-2551 limits assumed): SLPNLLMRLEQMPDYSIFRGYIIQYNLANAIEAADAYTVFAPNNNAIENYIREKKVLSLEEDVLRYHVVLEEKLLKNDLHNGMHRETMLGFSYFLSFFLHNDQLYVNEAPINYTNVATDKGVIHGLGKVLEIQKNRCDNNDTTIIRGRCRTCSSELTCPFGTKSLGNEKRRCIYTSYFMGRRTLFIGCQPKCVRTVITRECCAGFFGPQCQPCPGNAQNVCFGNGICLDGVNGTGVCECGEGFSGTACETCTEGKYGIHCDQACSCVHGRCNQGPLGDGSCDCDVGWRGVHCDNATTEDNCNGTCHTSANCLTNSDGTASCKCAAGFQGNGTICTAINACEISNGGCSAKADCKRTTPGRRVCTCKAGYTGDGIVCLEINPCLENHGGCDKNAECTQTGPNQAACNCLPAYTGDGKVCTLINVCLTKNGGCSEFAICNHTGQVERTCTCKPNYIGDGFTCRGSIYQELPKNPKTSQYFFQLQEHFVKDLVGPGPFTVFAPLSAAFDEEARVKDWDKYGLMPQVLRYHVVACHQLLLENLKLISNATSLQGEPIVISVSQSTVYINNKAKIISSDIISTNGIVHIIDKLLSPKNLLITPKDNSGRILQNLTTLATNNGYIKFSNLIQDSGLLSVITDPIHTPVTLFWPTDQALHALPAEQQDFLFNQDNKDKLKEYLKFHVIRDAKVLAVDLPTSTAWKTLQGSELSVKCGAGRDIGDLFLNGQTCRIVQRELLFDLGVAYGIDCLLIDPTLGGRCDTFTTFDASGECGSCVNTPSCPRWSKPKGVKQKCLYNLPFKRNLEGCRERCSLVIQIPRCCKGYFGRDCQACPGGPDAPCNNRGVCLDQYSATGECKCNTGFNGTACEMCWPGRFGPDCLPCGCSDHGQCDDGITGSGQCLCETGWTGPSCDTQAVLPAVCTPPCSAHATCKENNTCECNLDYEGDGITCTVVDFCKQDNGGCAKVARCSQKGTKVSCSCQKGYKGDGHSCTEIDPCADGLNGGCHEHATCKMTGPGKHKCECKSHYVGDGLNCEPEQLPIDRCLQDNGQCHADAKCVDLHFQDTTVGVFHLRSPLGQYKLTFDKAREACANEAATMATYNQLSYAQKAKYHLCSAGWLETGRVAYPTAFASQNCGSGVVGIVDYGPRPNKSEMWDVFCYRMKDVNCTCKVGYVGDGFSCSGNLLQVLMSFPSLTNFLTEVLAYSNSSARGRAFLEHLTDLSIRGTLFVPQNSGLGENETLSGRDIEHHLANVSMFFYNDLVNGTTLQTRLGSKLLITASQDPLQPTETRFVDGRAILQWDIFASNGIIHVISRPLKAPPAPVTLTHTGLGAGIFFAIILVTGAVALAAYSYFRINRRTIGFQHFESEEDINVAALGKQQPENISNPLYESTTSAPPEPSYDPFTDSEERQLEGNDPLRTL
Protocol: FIG. 5 is a histogram of endocytosis of ^35S-labeled synthetic LMWHs in Flp-In-293 cells. The cells were stably transfected with the plasmid expressing the Stabilin-2 receptor (190-HARE). The internalization value was calculated by subtracting the nonspecific internalization background from the total internalization of a ^35S-labeled Compound. The background was determined by mixing the ^35S-labeled Compound with at least 100-fold molecular excess of unlabeled UFH.
The Stabilin-2 cell line expressing the 190-HARE (Harris et al., J. Biol. Chem. 279, 36201-36209, 2004) was grown to 90% confluency with DMEM+8% FBS+50 μgml^−1 Hygromycin B in 24-well plates for at least 2 days prior to the experiment in a standard tissue culture incubator. Endocytosis medium (DMEM+0.05% BSA) containing a known amount of ^35S-labeled LMWH Compound, LOVENOX®, or UFH was added to each well in triplicate and allowed to incubate with the cells for 3 h at 37° C., 5% CO2. Receptor specific internalization was assessed by incubating each radiolabeled ligand with at least a 100-fold excess of unlabeled UFH. The cells were then washed with Hank's Balanced Salt Solution (1.26 mM CaCl2, 5.33 mM KCl, 0.44 mM KH2PO4, 0.5 mM MgCl2-6H2O, 0.41 mM MgSO4-7H2O, 138 mM NaCl, 4.0 mM NaHCO3, […], 0.3 mM phenol red, pH 7.2) three-times, and cells were lysed in 0.4 ml 0.3 N NaOH. 0.35 ml of the cell lysate mixture was mixed with 4 ml scintillation fluid (Perkin Elmer, Waltham, Mass., United States of America) and radioactivity was measured by a Beckman Coulter LS6500 scintillation counter. The remaining 0.05 ml cell lysate was used to determine protein levels using the Bradford reagent (Sigma-Aldrich). The data was calculated as the percentage of specific CPM internalized of the total amount added per μg cell lysate protein±standard deviation.

endocytosis mediated by Stabilin-2 (internalization)	SMILES
very low internalization	O=C(O)C1OC(OC2C(COS(=O)(=O)O)OC(OC3C(C(=O)O)OC(OC4C(COS(=O)(=O)O)OC(OC5C(C(=O)O)OC(Oc6ccc([N+](=O)[O-])cc6)C(O)C5O)C(NS(=O)(=O)O)C4O)C(OS(=O)(=O)O)C3O)C(NS(=O)(=O)O)C2OS(=O)(=O)O)C(O)C(O)C1OC1OC(COS(=O)(=O)O)C(O)C(O)C1NS(=O)(=O)O (stereo not drawn) [Compound 1]
very low internalization	O=C(O)C1OC(OC2C(COS(=O)(=O)O)OC(OC3C(C(=O)O)OC(OC4C(COS(=O)(=O)O)OC(OC5C(C(=O)O)OC(OC6C(COS(=O)(=O)O)OC(OC7C(C(=O)O)OC(Oc8ccc([N+](=O)[O-])cc8)C(O)C7O)C(NS(=O)(=O)O)C6O)C(OS(=O)(=O)O)C5O)C(NS(=O)(=O)O)C4O)C(OS(=O)(=O)O)C3O)C(NS(=O)(=O)O)C2OS(=O)(=O)O)C(O)C(O)C1OC1OC(COS(=O)(=O)O)C(O)C(O)C1NS(=O)(=O)O (stereo not drawn) [Compound 2]
significant endocytosis	O=C(O)C1OC(OC2C(COS(=O)(=O)O)OC(OC3C(C(=O)O)OC(OC4C(COS(=O)(=O)O)OC(OC5C(C(=O)O)OC(OC6C(COS(=O)(=O)O)OC(OC7C(C(=O)O)OC(OC8C(COS(=O)(=O)O)OC(OC9C(C(=O)O)OC(Oc%10ccc([N+](=O)[O-])cc%10)C(O)C9O)C(NS(=O)(=O)O)C8O)C(OS(=O)(=O)O)C7O)C(NS(=O)(=O)O)C6O)C(OS(=O)(=O)O)C5O)C(NS(=O)(=O)O)C4O)C(OS(=O)(=O)O)C3O)C(NS(=O)(=O)O)C2OS(=O)(=O)O)C(O)C(O)C1OC1OC(COS(=O)(=O)O)C(O)C(O)C1NS(=O)(=O)O (stereo not drawn) [Compound 3]

SMILES	endocytosis mediated by Stabilin-2 (internalization)
CC(=O)NC1C(OC2C(C(=O)O)OC(OC3C(COS(=O)(=O)O)OC(OC4C(C(=O)O)OC(OC5C(COS(=O)(=O)O)OC(OC6C(C(=O)O)OC(OC7C(COS(=O)(=O)O)OC(OC8C(C(=O)O)OC(OC9C(COS(=O)(=O)O)OC(OC%10C(C(=O)O)OC(OC%11C(COS(=O)(=O)O)OC(OC%12C(C(=O)O)OC(Oc%13ccc([N+](=O)[O-])cc%13)C(O)C%12O)C(NS(=O)(=O)O)C%11O)C(OS(=O)(=O)O)C%10O)C(NS(=O)(=O)O)C9O)C(OS(=O)(=O)O)C8O)C(NS(=O)(=O)O)C7O)C(OS(=O)(=O)O)C6O)C(NS(=O)(=O)O)C5O)C(OS(=O)(=O)O)C4O)C(NS(=O)(=O)O)C3OS(=O)(=O)O)C(O)C2O)OC(COS(=O)(=O)O)C(O)C1O (stereo not drawn) [Compound 4]	significant endocytosis
CC(=O)NC1C(OC2C(C(=O)O)OC(OC3C(COS(=O)(=O)O)OC(OC4C(C(=O)O)OC(OC5C(COS(=O)(=O)O)OC(OC6C(C(=O)O)OC(OC7C(COS(=O)(=O)O)OC(OC8C(C(=O)O)OC(OC9C(COS(=O)(=O)O)OC(OC%10C(C(=O)O)OC(OC%11C(COS(=O)(=O)O)OC(OC%12C(C(=O)O)OC(Oc%13ccc([N+](=O)[O-])cc%13)C(O)C%12O)C(NS(=O)(=O)O)C%11O)C(OS(=O)(=O)O)C%10O)C(NS(=O)(=O)O)C9OS(=O)(=O)O)C(OS(=O)(=O)O)C8O)C(NS(=O)(=O)O)C7O)C(OS(=O)(=O)O)C6O)C(NS(=O)(=O)O)C5O)C(OS(=O)(=O)O)C4O)C(NS(=O)(=O)O)C3OS(=O)(=O)O)C(O)C2O)OC(COS(=O)(=O)O)C(O)C1O (stereo not drawn) [Compound 5]	significant endocytosis

system: human factor Xa; assay: Neutralization of LMWHs by protamine in mice, ex vivo anti-Xa activity in mouse plasma; details: C57BL/6J mice, s.c. test compound, protamine 15 mgkg^−1 i.v. 30 min later, plasma 5 min later (FIG. 4C)
Protocol: The study was performed on eight week old male C57BL/6J mice (Jackson Laboratories, Bar Harbor, Me., United States of America) (n=4 per group). The mouse experiments were approved by the UNC Animal Care and Use Committees and complied with National Institutes of Health guidelines. Under isoflurane anesthesia, mice were subcutaneously administered with PBS, UFH (3 mgkg^−1), LOVENOX® (3 mgkg^−1) or Compound 5 (0.6 mgkg^−1) 30 min prior to a protamine administration. […] To obtain mouse plasma, blood samples were centrifuged at 4,000 g for 15 min at 4° C. Mouse plasma was then used to determine anti-Xa activity. Ex vivo analysis of anti-Xa activity was done similar to the in vitro study described above. Briefly, plasma (10 μl) from different groups of mice was incubated with 80 nM human factor Xa (10 μl) at room temperature for 4 minutes and S-2765 (1 mgml^−1, 30 μl) was then added. The anti-Xa activity in the mouse plasma from the PBS injected mice was defined as 100%. Statistical analysis for multiple comparisons was performed by two-way ANOVA with Bonferroni's post-hoc test (GraphPad Prism Software, La Jolla, Calif., United States of America).

SMILES	ex vivo reversibility of anti-FXa activity by protamine
CC(=O)NC1C(OC2C(C(=O)O)OC(OC3C(COS(=O)(=O)O)OC(OC4C(C(=O)O)OC(OC5C(COS(=O)(=O)O)OC(OC6C(C(=O)O)OC(OC7C(COS(=O)(=O)O)OC(OC8C(C(=O)O)OC(OC9C(COS(=O)(=O)O)OC(OC%10C(C(=O)O)OC(OC%11C(COS(=O)(=O)O)OC(OC%12C(C(=O)O)OC(Oc%13ccc([N+](=O)[O-])cc%13)C(O)C%12O)C(NS(=O)(=O)O)C%11O)C(OS(=O)(=O)O)C%10O)C(NS(=O)(=O)O)C9OS(=O)(=O)O)C(OS(=O)(=O)O)C8O)C(NS(=O)(=O)O)C7O)C(OS(=O)(=O)O)C6O)C(NS(=O)(=O)O)C5O)C(OS(=O)(=O)O)C4O)C(NS(=O)(=O)O)C3OS(=O)(=O)O)C(O)C2O)OC(COS(=O)(=O)O)C(O)C1O (stereo not drawn) [Compound 5]	reversible
